Reference: patent publication US20240059740A1, “CYCLIC PEPTIDES AND USES THEREOF” (PRE[…] INC., priority 2020, published 2024)
Residues, ends and D or L forms follow the SMILES beside them.

Columns and labels:
Format in all cases: cell-based, human
[1] = test system: Twist mRNA; experiment: Real time RT-PCR, Twist mRNA expression
Excerpt: (§1) The real-time reverse transcription polymerase chain reaction (RT-PCR) uses fluorescent reporter molecules to monitor the production of amplification products during each cycle of the PCR reaction. This combines the nucleic acid amplification and detection steps into one homogeneous assay and use of appropriate chemistries and data analysis eliminates the need for Southern blotting or DNA sequencing for amplicon identification. Its simplicity, specificity and sensitivity, together with its potential for high throughput and the ongoing introduction of new chemistries, more reliable instrumentation and improved protocols, has made real-time RT-PCR the benchmark technology for the detection and/or comparison of RNA levels.’
(§2) In order to detect and quantify the expression of specific genes at mRNA level, real-time reverse transcriptase polymerase chain reaction (Real time RT-PCR) was performed. Total RNA of samples was isolated and purified using the PureLink® RNA Mini Kit (Life technologies). The concentration of total RNA was detected by NanoDrop 2000 Spectrophotometer (Thermo Scientific). The total RNA (2000 ng) was reverse transcribed using the High-Capacity cDNA Reverse Transcription Kit (Applied Biosystems™).
(§3) The primers of target genes were TaqMan™ Gene Expression Assay for human PLAU (Hs01547054_m1), MMP-2 (Hs01548727_m1), MMP-9 (Hs00957562_m1), Snail-1 (Hs00195591_m1), Snail-2 (Hs00161904_m1), N-cadherin (Hs00983056_m1) and Twist (Hs01675818_s1). Relative quantification was done by reference to 18S ribosomal RNA (18S rRNA) and analysed using the comparative critical threshold (Ct) method
The mRNA expression of MMPs was measured using qRT-PCR. This was tested three independent times; the results are shown in Tables 9, 10 and 11 for U251, U87 cells and O81024 cells respectively. Results are reported as percent of the control cells (no treatment). Both MMP-2 and uPA were decreased in U251 by SEQ ID NO.1. […]

[2] = test system: CDH-2 (N-cadherin) mRNA; experiment: Real time RT-PCR, CDH-2 (N-cadherin) mRNA expression
Excerpt: as §1, §2, §3
(§4) The mRNA expression of MMPs was measured using qRT-PCR. This was tested three independent times; the results are shown in Tables 9, 10 and 11 for U251, U87 cells and O81024 cells respectively. Results are reported as percent of the control cells (no treatment). Both MMP-2 and uPA were decreased in U251 by SEQ ID NO.1.
Epithelial-mesenchymal transition (EMT) is the process by which epithelial cells acquire a migratory (metastatic) phenotype and so EMT is associated with cancer metastasis, cancer cell stemness, chemoresistance and immune resistance. Therefore, the determination of the mRNA expression of EMT markers is a valuable tool to evaluate invasion potential of cancer cells.
The ‘Snail’ superfamily is involved in cell differentiation and survival, two processes central in cancer research. Snail-1 has a pivotal role in the regulation of epithelial-mesenchymal transition (EMT) and Snail-1 expression is associated with poor prognosis in metastatic cancer, and tumours with elevated Snail-1 expression are harder to treat. […]

[3] = test system: U251 cells; experiment: MTT assay for cytotoxicity, U251; settings: 48 hours, % viability of control
Excerpt: The MTT (3-[4.5-dimethylthiazol-2-yl]-2,5═diphenyl tetrazolium bromide) assay is based on a process undertaken by living cells, involving the conversion of MTT into formazan crystals. This assay is used routinely to measure the in vitro cytotoxic effects of drugs on cell lines or primary patient cells (Van Meerloo et al., 2011). The MTT assay measures mitochondrial activity, so in some instances where the peptide activates mitochondrial response, the results appear to increase the number of cells present i.e. >100% cell viability.
The aim of this experiment was to identify peptide concentrations that are active on living cells and cell viability was assessed.
The glioblastoma multiforme (GBM) cell lines used were U87 and U251 cells and patient derived cells grown as oncospheres (081024 cells). Human adherent GBM cell lines U87 and U251 were cultured in RPMI medium (Life Technologies Melbourne Australia) supplemented with 5% v/v FBS, 100 U/mL penicillin and 100 μg/mL streptomycin. 081024 cells were cultrured in NeuroCult™ NS-A Proliferation medium with 0.2% (v/v) heparin, 20 ng/mL EGF and 10 ng/mL FGF.
8×10^3 U87 and 7×10^3 U251 cells per well were seeded in 96 well plates in 200 μL serum-containing RPMI medium and incubated at 37° C. with 5% CO2 for 24 hours. After one wash with serum-free medium, 100 μL serum-free medium with different concentration of peptide SEQ ID NO:1 was added to each well. After 48 hours incubation, 10 μL of 0.5 mg/mL MTT was added and incubated for 2 hours at 37° C. Formazan crystals were dissolved by 200 μL/well dimethyl sulfoxide (DMSO) and shaking for 15 minutes. The UV absorbance was read with an iMark™ microplate absorbance reader at 595 nm (Bio-Rad Laboratories). Background absorbance was subtracted and results expressed as the % viability of control (untreated cells).

[4] = test system: MMP-9 mRNA; experiment: Real time RT-PCR, MMP-9 mRNA expression
Excerpt: as §1, §2, §3, §4

[5] = 081024 cells, baseline expression level = 1
[6] = U87 cells, baseline expression level = 1
[7] = U251 cells, relative to control (no treatment)

SMILES: CC(C)C[C@@H]1NC(=O)[C@H](C)NC(=O)[C@@H](NC(=O)[C@@H]2CCCN2C(=O)[C@@H](N)CC(C)C)CSSC(C)(C)CNC(=O)CC[C@@H](C(=O)N[C@@H](CCCNC(=N)N)C(N)=O)NC(=O)[C@H](CC(=O)O)NC(=O)[C@H](CC(N)=O)NC1=O [SEQ ID NO: 1, Leu-Pro-c(SSA*-Ala-Leu-Asn-Asp-Glu)-Arg-NH2] (HELM PEPTIDE1{L.P.C.A.L.N.D.E.R.[am]}|CHEM1{[CC(C)(CN[*:2])S[*:1]]}$PEPTIDE1,CHEM1,3:R3-1:R1|PEPTIDE1,CHEM1,8:R3-1:R2$$$V2.0; N-terminus assumed)
- mRNA expression, Twist [1, 5]: 0.94
- mRNA expression, Twist [1, 6]: 0.79
- mRNA expression, Twist [1, 7]: 0.91
- mRNA expression, CDH-2 [2, 5]: 0.91
- mRNA expression, CDH-2 [2, 6]: 0.98
- mRNA expression, CDH-2 [2, 7]: 0.82
- mRNA expression, CDH-2 (in words) ([2]; cell line not specified): non-statistical decrease in expression
- Cell viability ([3]; 1 μM): 100.7%
- Cell viability ([3]; 5 μM): 101.7%
- Cell viability ([3]; 10 μM): 100.4%
- Cell viability ([3]; 50 μM): 107.3%
- Cell viability ([3]; 100 μM): 105.5%
- Cell viability ([3]; 500 μM): 93.84%
- Cell viability ([3]; 1 mM): 83.99%
- mRNA expression, MMP-9 [4, 5]: 0.63
- mRNA expression, MMP-9 [4, 6]: 0.66
- mRNA expression, MMP-9 [4, 7]: 0.73
